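1) Cells in 96-well plates. 2) Compound, 48 h, 5 concentrations. 3) Linear interpolation between surrounding doses. 4) Unreached endpoint = highest concentration. GI50 = concentration required for 50% inhibition of growth. TGI: total growth inhibition.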
Experiments:
Experiment in all cases: NCI anticancer screen, dose series, 48 h
786-0 renal = test system: 786-0 renal
A549 NSCLC = test system: A549 NSCLC
ACHN renal = test system: ACHN renal
CAKI-1 renal = test system: CAKI-1 renal
CCRF-CEM leukemia = test system: CCRF-CEM leukemia
COLO 205 colon = test system: COLO 205 colon
DLD-1 colon = test system: DLD-1 colon
DMS 114 small cell lung = test system: DMS 114 small cell lung
EKVX NSCLC = test system: EKVX NSCLC
HCC-2998 colon = test system: HCC-2998 colon
HCT-116 colon = test system: HCT-116 colon
HCT-15 colon = test system: HCT-15 colon
HL-60(TB) leukemia = test system: HL-60(TB) leukemia
HOP-18 NSCLC = test system: HOP-18 NSCLC
HOP-62 NSCLC = test system: HOP-62 NSCLC
HOP-92 NSCLC = test system: HOP-92 NSCLC
HT29 colon = test system: HT29 colon
IGROV1 ovarian = test system: IGROV1 ovarian
K-562 leukemia = test system: K-562 leukemia
KM12 colon = test system: KM12 colon
KM20L2 colon = test system: KM20L2 colon
LOX IMVI melanoma = test system: LOX IMVI melanoma
LXFL 529 NSCLC = test system: LXFL 529 NSCLC
M14 melanoma = test system: M14 melanoma
M19-MEL melanoma = test system: M19-MEL melanoma
MALME-3M melanoma = test system: MALME-3M melanoma
MOLT-4 leukemia = test system: MOLT-4 leukemia
NCI-H226 lung = test system: NCI-H226 lung
NCI-H23 lung = test system: NCI-H23 lung
NCI-H460 lung = test system: NCI-H460 lung
NCI-H522 lung = test system: NCI-H522 lung
OVCAR-3 ovarian = test system: OVCAR-3 ovarian
OVCAR-4 ovarian = test system: OVCAR-4 ovarian
OVCAR-5 ovarian = test system: OVCAR-5 ovarian
OVCAR-8 ovarian = test system: OVCAR-8 ovarian
RPMI-8226 leukemia = test system: RPMI-8226 leukemia
RXF 393 renal = test system: RXF 393 renal
RXF-631 renal = test system: RXF-631 renal
SF-268 CNS = test system: SF-268 CNS
SF-295 CNS = test system: SF-295 CNS
SF-539 CNS = test system: SF-539 CNS
SK-MEL-2 melanoma = test system: SK-MEL-2 melanoma
SK-MEL-28 melanoma = test system: SK-MEL-28 melanoma
SK-MEL-5 melanoma = test system: SK-MEL-5 melanoma
SN12C renal = test system: SN12C renal
SNB-19 CNS = test system: SNB-19 CNS
SNB-75 CNS = test system: SNB-75 CNS
SNB-78 CNS = test system: SNB-78 CNS
SW-620 colon = test system: SW-620 colon
TK-10 renal = test system: TK-10 renal
U251 CNS = test system: U251 CNS
UACC-257 melanoma = test system: UACC-257 melanoma
UACC-62 melanoma = test system: UACC-62 melanoma
UO-31 renal = test system: UO-31 renal
A498 renal = test system: A498 renal
BT-549 breast = test system: BT-549 breast
DMS 273 small cell lung = test system: DMS 273 small cell lung
DU-145 prostate = test system: DU-145 prostate
HS 578T breast = test system: HS 578T breast
MDA-MB-435 = test system: MDA-MB-435
MDA-N = test system: MDA-N
PC-3 prostate = test system: PC-3 prostate
SK-OV-3 ovarian = test system: SK-OV-3 ovarian
SR leukemia = test system: SR leukemia
T-47D breast = test system: T-47D breast
XF 498 CNS = test system: XF 498 CNS

COC[n+]1cc2cc(OC)c(OC)cc2c2ccc3cc(OC)c(OC)cc3c21
TGI (786-0 renal): > 100 µM
TGI (A549 NSCLC): > 100 µM
TGI (ACHN renal): > 100 µM
TGI (CAKI-1 renal): > 100 µM
TGI (CCRF-CEM leukemia): > 100 µM
TGI (COLO 205 colon): > 100 µM
TGI (DLD-1 colon): > 100 µM
TGI (DMS 114 small cell lung): > 100 µM
TGI (EKVX NSCLC): > 100 µM
TGI (HCC-2998 colon): > 100 µM
TGI (HCT-116 colon): > 100 µM
TGI (HCT-15 colon): > 100 µM
TGI (HL-60(TB) leukemia): > 100 µM
TGI (HOP-18 NSCLC): > 100 µM
TGI (HOP-62 NSCLC): > 100 µM
TGI (HOP-92 NSCLC): > 100 µM
TGI (HT29 colon): > 100 µM
TGI (IGROV1 ovarian): > 100 µM
TGI (K-562 leukemia): > 100 µM
TGI (KM12 colon): > 100 µM
TGI (KM20L2 colon): > 100 µM
TGI (LOX IMVI melanoma): > 100 µM
TGI (LXFL 529 NSCLC): > 100 µM
TGI (M14 melanoma): > 100 µM
TGI (M19-MEL melanoma): > 100 µM
TGI (MALME-3M melanoma): > 100 µM
TGI (MOLT-4 leukemia): > 100 µM
TGI (NCI-H226 lung): > 100 µM
TGI (NCI-H23 lung): > 100 µM
TGI (NCI-H460 lung): > 100 µM
TGI (NCI-H522 lung): > 100 µM
TGI (OVCAR-3 ovarian): > 100 µM
TGI (OVCAR-4 ovarian): > 100 µM
TGI (OVCAR-5 ovarian): > 100 µM
TGI (OVCAR-8 ovarian): > 100 µM
TGI (RPMI-8226 leukemia): > 100 µM
TGI (RXF 393 renal): > 100 µM
TGI (RXF-631 renal): > 100 µM
TGI (SF-268 CNS): > 100 µM
TGI (SF-295 CNS): > 100 µM
TGI (SF-539 CNS): > 100 µM
TGI (SK-MEL-2 melanoma): > 100 µM
TGI (SK-MEL-28 melanoma): > 100 µM
TGI (SK-MEL-5 melanoma): > 100 µM
TGI (SN12C renal): > 100 µM
TGI (SNB-19 CNS): > 100 µM
TGI (SNB-75 CNS): > 100 µM
TGI (SNB-78 CNS): > 100 µM
TGI (SW-620 colon): > 100 µM
TGI (TK-10 renal): > 100 µM
TGI (U251 CNS): > 100 µM
TGI (UACC-257 melanoma): > 100 µM
TGI (UACC-62 melanoma): > 100 µM
TGI (UO-31 renal): > 100 µM

CC1(C)OCC(CO)(Nc2nc(N3CC3)nc(N3CC3)n2)CO1
TGI (786-0 renal): 18.7 µM
TGI (A498 renal): 24.2 µM
TGI (A549 NSCLC): 34.3 µM
TGI (ACHN renal): 13.9 µM
TGI (BT-549 breast): 93.5 µM
TGI (CAKI-1 renal): 13.8 µM
TGI (CCRF-CEM leukemia): > 83.4 µM
TGI (COLO 205 colon): 60.9 µM
TGI (DLD-1 colon): > 93 µM
TGI (DMS 114 small cell lung): 27.2 µM
TGI (DMS 273 small cell lung): 25.8 µM
TGI (DU-145 prostate): 8.91 µM
TGI (EKVX NSCLC): 90.8 µM
TGI (HCC-2998 colon): 36.3 µM
TGI (HCT-116 colon): 27.5 µM
TGI (HCT-15 colon): 45.8 µM
TGI (HL-60(TB) leukemia): 25.3 µM
TGI (HOP-18 NSCLC): > 87.6 µM
TGI (HOP-62 NSCLC): 30.9 µM
TGI (HOP-92 NSCLC): 51.5 µM
TGI (HS 578T breast): 42.6 µM
TGI (HT29 colon): 53.7 µM
TGI (IGROV1 ovarian): 58.5 µM
TGI (K-562 leukemia): > 100 µM
TGI (KM12 colon): 43.3 µM
TGI (KM20L2 colon): 51.8 µM
TGI (LOX IMVI melanoma): 32.4 µM
TGI (LXFL 529 NSCLC): > 100 µM
TGI (M14 melanoma): 25.5 µM
TGI (M19-MEL melanoma): 34.4 µM
TGI (MALME-3M melanoma): 42.1 µM
TGI (MDA-MB-435): 46.4 µM
TGI (MDA-N): 27.9 µM
TGI (MOLT-4 leukemia): 19 µM
TGI (NCI-H226 lung): 28.5 µM
TGI (NCI-H23 lung): 16.3 µM
TGI (NCI-H460 lung): 29 µM
TGI (NCI-H522 lung): 33.8 µM
TGI (OVCAR-3 ovarian): 49.4 µM
TGI (OVCAR-4 ovarian): 41.9 µM
TGI (OVCAR-5 ovarian): 50.3 µM
TGI (OVCAR-8 ovarian): 33.1 µM
TGI (PC-3 prostate): > 100 µM
TGI (RPMI-8226 leukemia): > 100 µM
TGI (RXF 393 renal): 28.6 µM
TGI (SF-268 CNS): 27.6 µM
TGI (SF-295 CNS): 20.3 µM
TGI (SF-539 CNS): 27 µM
TGI (SK-MEL-2 melanoma): 40 µM
TGI (SK-MEL-28 melanoma): 53 µM
TGI (SK-MEL-5 melanoma): 22.1 µM
TGI (SK-OV-3 ovarian): 34.2 µM
TGI (SN12C renal): 58.6 µM
TGI (SNB-19 CNS): 62.1 µM
TGI (SNB-75 CNS): 33.1 µM
TGI (SNB-78 CNS): > 100 µM
TGI (SR leukemia): 28.9 µM
TGI (SW-620 colon): 64.1 µM
TGI (T-47D breast): 45 µM
TGI (TK-10 renal): 67.5 µM
TGI (U251 CNS): 31.7 µM
TGI (UACC-257 melanoma): 45.1 µM
TGI (UACC-62 melanoma): 14 µM
TGI (UO-31 renal): 23.1 µM
TGI (XF 498 CNS): 29.3 µM

[N-]=[N+]=NC1C(Br)C(=O)NC(=O)N1[C@H]1C[C@H](O)[C@@H](CO)O1 (some centres undefined)
TGI (786-0 renal): > 100 µM
TGI (A498 renal): > 100 µM
TGI (A549 NSCLC): > 100 µM
TGI (ACHN renal): > 100 µM
GI50 (CAKI-1 renal): 66.3 µM
TGI (CAKI-1 renal): > 100 µM
GI50 (CCRF-CEM leukemia): 38 µM
TGI (CCRF-CEM leukemia): > 100 µM
TGI (COLO 205 colon): > 100 µM
TGI (DLD-1 colon): > 100 µM
GI50 (DMS 114 small cell lung): 90.9 µM
TGI (DMS 114 small cell lung): > 100 µM
TGI (DMS 273 small cell lung): > 100 µM
TGI (EKVX NSCLC): > 100 µM
TGI (HCC-2998 colon): > 100 µM
TGI (HL-60(TB) leukemia): > 100 µM
TGI (HOP-62 NSCLC): > 100 µM
TGI (HOP-92 NSCLC): > 100 µM
TGI (HT29 colon): > 100 µM
TGI (IGROV1 ovarian): > 100 µM
TGI (K-562 leukemia): > 100 µM
TGI (KM12 colon): > 100 µM
TGI (KM20L2 colon): > 100 µM
TGI (LOX IMVI melanoma): > 100 µM
TGI (LXFL 529 NSCLC): > 100 µM
TGI (M14 melanoma): > 100 µM
GI50 (M19-MEL melanoma): 91.5 µM
TGI (M19-MEL melanoma): > 100 µM
GI50 (MALME-3M melanoma): 15.5 µM
TGI (MALME-3M melanoma): > 100 µM
TGI (MOLT-4 leukemia): > 100 µM
TGI (NCI-H23 lung): > 100 µM
TGI (NCI-H460 lung): > 100 µM
TGI (NCI-H522 lung): > 100 µM
TGI (OVCAR-3 ovarian): > 100 µM
TGI (OVCAR-4 ovarian): > 100 µM
TGI (OVCAR-5 ovarian): > 100 µM
TGI (OVCAR-8 ovarian): > 100 µM
GI50 (RPMI-8226 leukemia): 19.6 µM
TGI (RPMI-8226 leukemia): > 100 µM
TGI (RXF 393 renal): > 100 µM
TGI (SF-268 CNS): > 100 µM
TGI (SF-295 CNS): > 100 µM
TGI (SF-539 CNS): > 100 µM
TGI (SK-MEL-2 melanoma): > 100 µM
TGI (SK-MEL-28 melanoma): > 100 µM
GI50 (SK-MEL-5 melanoma): 42.2 µM
TGI (SK-MEL-5 melanoma): > 100 µM
TGI (SK-OV-3 ovarian): > 100 µM
TGI (SN12C renal): > 100 µM
TGI (SNB-19 CNS): > 100 µM
TGI (SNB-75 CNS): > 100 µM
TGI (SNB-78 CNS): > 100 µM
TGI (SW-620 colon): > 100 µM
TGI (TK-10 renal): > 100 µM
TGI (U251 CNS): > 100 µM
TGI (UACC-257 melanoma): > 100 µM
TGI (UACC-62 melanoma): > 100 µM
TGI (UO-31 renal): > 100 µM
TGI (XF 498 CNS): > 100 µM

Source: PubChem BioAssay (NCI)
